Values quoted from earlier work in US20020090664A1, “Methods for measuring stress in mammals” (priority 2000, published 2002).

Tested on: salivary cortisol
Settings: adults exposed to the fragrance before the stressful event, compared with challenge without fragrance; Tanizawa, JP Patent No.11-19076

Cc1c[nH]c2ccccc12 [skatole]
effect of fragrance on stress induced release of cortisol (salivary cortisol levels): opposite effect
